Laboratory results from ChEMBL document CHEMBL1126181, “New nonpeptide angiotensin II receptor antagonists. 1. Synthesis, biological properties, and structure-activity relationships of 2-alkyl benzimidazole derivatives” (J Med Chem, 1992).

target: Type-1 angiotensin II receptor (Rattus norvegicus) (UniProt P25095); assay: The compound was tested for Angiotensin II (AII) antagonist activity in vivo in an AII infused, normotensive rat model upon intravenous administration
Sequence (P25095 whole entry, looked up, the tested form may be a part): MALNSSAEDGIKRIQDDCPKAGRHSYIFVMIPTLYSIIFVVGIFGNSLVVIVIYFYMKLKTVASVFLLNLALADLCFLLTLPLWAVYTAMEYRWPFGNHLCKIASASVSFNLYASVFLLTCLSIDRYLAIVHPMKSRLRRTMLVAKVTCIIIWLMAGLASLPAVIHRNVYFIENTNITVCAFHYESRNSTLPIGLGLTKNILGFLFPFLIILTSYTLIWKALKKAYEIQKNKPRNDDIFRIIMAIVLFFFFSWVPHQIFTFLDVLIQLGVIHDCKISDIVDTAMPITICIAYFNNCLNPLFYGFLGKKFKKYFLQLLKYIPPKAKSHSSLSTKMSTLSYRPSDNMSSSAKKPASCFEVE

Compound	ED50
CCCCc1nc2ccccc2n1Cc1ccc(-c2ccccc2-c2nn[nH]n2)cc1	5.2 mg/kg

target: Type-1 angiotensin II receptor (Rattus norvegicus) (UniProt P25095); assay: The compound was tested for Angiotensin II (AII) antagonist activity in vivo in an […], normotensive rat model upon intravenous administration

Compound	ED50
CCCCCCc1nc2ccccc2n1Cc1ccc(C(=O)O)cc1	> 20 mg/kg
CCCCc1nc2cc(F)ccc2n1Cc1ccc(C(=O)O)cc1	9.1 mg/kg
CCCCc1nc2ccccc2n1Cc1ccc(C(=O)O)cc1	12.6 mg/kg
CCCCc1nc2ccccc2n1Cc1ccc(C(=O)O)cc1OC	16.1 mg/kg
CCCCc1nc2ccccc2n1Cc1ccc(C(=O)O)c(Br)c1	5 mg/kg
CCCCc1nc2ccccc2n1Cc1ccc(C(=O)O)cc1Br	11.1 mg/kg
